Entries after “also recorded” stand apart in the source; their conditions may differ. Like-named read-outs stand apart in the source and are kept apart here.
Assays:
EGFP = EGFP (Aequorea victoria, UniProt P42212, F64L/H231L/S65T); type: biochemical; settings: for 2nd quenching assay EGFP fluorescence: Table 3; for retention of fluorescence of a fluorescent protein: stated in the description
Protocol: (FIG. 7). […] A mouse hemisphere was treated with use of each 10 wt % chemical solution at 37° C. for 3 days, and was washed with PBS. Subsequently, the mouse hemisphere was subjected to refractive index adjustment with CUBIC-2A.

bovine coagulated blood = assay: Decoloring screening: heme eluted from bovine coagulated blood (OD420-OD700); settings: decolorization; for 700 nm calibrated 420 nm Average: OD420 calibrated by OD700; for integrated value 500-700 nm Average: integrated absorbance 500-700 nm
[1] = Refractive index of high-concentration aqueous solution; type: physicochemical
Description: (§1) The refractive index of an aqueous solution is commonly known to increase in a solute concentration-dependent manner, and the refractive index of a reagent per unit weight of the reagent varies among individual reagents. Accordingly, two properties are required in order to prepare a high refractive index aqueous solution: (1) an extremely high water-solubility and (2) a […] which allows achieving a high refractive index in a low-concentration aqueous solution.

[2] = for 400 nm: OD at 400 nm of the chemical
[3] = system: fixed brain tissue suspension; assay: 1st delipidation assay: solubilization of fixed brain tissue suspension, turbidity at 600 nm; set-up: species or system mice; settings: Table 1; 10 wt % chemical, fixed mouse brain suspension, 37° C. overnight; PBS = 1.000
Protocol: Specifically, brains taken out of mice were sheared with a utility knife and then were disrupted by ultrasonication. To each of the resultant suspensions, an equal volume of 8% PFA solution was added to perform fixation at 4° C. for 1 hour. The resultant mixture was centrifuged to remove the supernatant, and the fixed brain tissue was washed with PBS for 3 times. PBS was added so as to obtain 2 mL of a fixed brain tissue suspension per brain. The fixed brain tissue suspension was diluted by 3.5 folds. To 20 μL of the resultant suspension, 130 μL of each 10 wt % chemical was added and was shaken at 37° C. overnight. Thus obtained mixed solutions were subjected to absorbance (turbidity) measurement at 600 nm. It is expected that a chemical solution which reduces the turbidity of a fixed brain suspension allows reducing light scattering by solubilizing lipids, which act as a scattering factor, in the brain tissue.

mouse hemisphere = assay: Delipidation and clearing of mouse hemisphere (transmittance, phospholipid and cholesterol content)
Protocol: Subsequently, the delipidation efficiency of the series of compounds in mammalian tissue was examined. […] The transmittance of the brain tissue was measured, and then the brain tissue was washed with PBS and was disrupted. […] It was thus shown that the above basic chemicals and some neutral chemicals were better than the detergents from the viewpoint of permeability with respect to tissue. […] Subsequently, the mouse hemisphere was subjected to refractive index adjustment with CUBIC-2A. […] Accordingly, #0414 (N-butyldiethanolamine) was selected as a highly-efficient delipidation chemical.

mouse spleen = assay: Decoloring of mouse spleen (OD420 of supernatant, transmissive image); settings: 10 wt % solution, 37° C. overnight
[4] = 1st RI evaluation assay: refractive index at 589 nm of 10 wt % aqueous solution; type: physicochemical; settings: Table 3
Description: as §1

mouse brain = assay: Swelling and clearing of delipidated mouse brain; settings: CUBIC-1 delipidated brain, shaken 3 days
[5] = Table 3, chemical conc. 70 wt %

SMILES	2nd quenching assay EGFP fluorescence (EGFP)	retention of fluorescence of a fluorescent protein (EGFP)	700 nm calibrated 420 nm Average (bovine coagulated blood)	integrated value 500-700 nm Average (bovine coagulated blood)	RI [1, 5]	Fluorescence quench Average (Serius; relative fluorescence)	400 nm [2]	OD400 ([2]; Table 3)	pH (Table 3)	pH ([…])	other results
CNC(=O)c1cccnc1 [#1283, N-Methyl- nicotinamide]	quench free	allowing retention of fluorescence of a fluorescent protein; also recorded: allows fluorescence of a fluorescent protein to be retained	2.98	2.81	1.4902	0.71	0.063	0.063	10.7	10.7	–
CCCCC(O)CO (stereo not shown) [#1051, 1,2-Hexanediol]	–	–	–	–	–	–	–	–	–	–	1st delipidation assay Relative OD600 [3]: 0.300; degree of delipidation and clearing of mouse hemisphere (mouse hemisphere; 10 wt % chemical, 37° C., 3 days, then CUBIC-2A, compared with detergents #1035, #1455, #1460, Triton X-100): higher degrees of delipidation and clearing; OD400 ([2]; Table 1): 0.048; pH (Table 1): 9.3
Cn1ccnc1 [1-methylimidazole]	–	–	–	–	–	–	–	–	–	–	mouse spleen decoloring activity (mouse spleen): equivalent decoloring activity
Cc1cc(=O)n(-c2ccccc2)n1C [#0640, 2,3-Dimethyl-1-phenyl-5-pyrazolone]	quench free	allowing retention of fluorescence of a fluorescent protein	1.22	0.93	–	–	–	–	–	–	RI [1]: 1.4966; Fluorescence quench Average (Serius): 0.84
CCn1ccnc1 [#0938, 1-ethylimidazole]	–	allows fluorescence of a fluorescent protein to be retained	6.19	3.41	–	0.80	0.053	–	–	12.1	mouse spleen decoloring activity (mouse spleen): highest
CCCCN(CCO)CCO [#0414, N-Butyldiethanolamine]	–	–	1.30	1.45	–	0.70	0.05	–	–	12.7	1st delipidation assay Relative OD600 [3]: 0.261; organ transparency (mouse hemisphere; #0414 versus #0389, basic chemicals): superiority; OD400 ([2]; Table 1): 0.05; pH (Table 1): 12.7
CN(C)C(=O)c1ccccc1 [#0788, N,N- Dimethyl- benzamide]	quench free	allowing retention of fluorescence of a fluorescent protein	1.26	1.08	1.4833	0.76	0.049	0.049	10.7	10.7	–
OCCNCc1ccccc1 [#0389, N-Benzyl- ethanolamine]	quench free	allowing retention of fluorescence of a fluorescent protein	2.73	2.42	1.4814	0.57	0.063	0.063	10.9	10.9	–
CNC(=S)NC [#0637, 1,3-Dimethyl-thiourea]	–	–	–	–	–	–	–	0.049	6.8	–	1st RI evaluation assay RI of 10% chemical [4]: 1.3555
c1c[nH]cn1 [#1352, imidazole]	–	–	–	–	–	–	–	–	–	–	swelling of delipidated mouse brain (mouse brain): high-degree of swelling
